This passage reports remaining binding results from US12479847B2 (DANA-FARBER CANCER INSTITUTE, INC., priority 2019, dated 2025).

What all share (assay): KINOMEscan (ScanMAX) kinase profiling
Type in all cases: binding

The target in assay [1] is T1, panel of 468 kinases (Homo sapiens, UniProt Q6ZN16).
T1 construct: purchased KINOMEscan (ScanMAX) service
T1 sequence (Q6ZN16 1-1313): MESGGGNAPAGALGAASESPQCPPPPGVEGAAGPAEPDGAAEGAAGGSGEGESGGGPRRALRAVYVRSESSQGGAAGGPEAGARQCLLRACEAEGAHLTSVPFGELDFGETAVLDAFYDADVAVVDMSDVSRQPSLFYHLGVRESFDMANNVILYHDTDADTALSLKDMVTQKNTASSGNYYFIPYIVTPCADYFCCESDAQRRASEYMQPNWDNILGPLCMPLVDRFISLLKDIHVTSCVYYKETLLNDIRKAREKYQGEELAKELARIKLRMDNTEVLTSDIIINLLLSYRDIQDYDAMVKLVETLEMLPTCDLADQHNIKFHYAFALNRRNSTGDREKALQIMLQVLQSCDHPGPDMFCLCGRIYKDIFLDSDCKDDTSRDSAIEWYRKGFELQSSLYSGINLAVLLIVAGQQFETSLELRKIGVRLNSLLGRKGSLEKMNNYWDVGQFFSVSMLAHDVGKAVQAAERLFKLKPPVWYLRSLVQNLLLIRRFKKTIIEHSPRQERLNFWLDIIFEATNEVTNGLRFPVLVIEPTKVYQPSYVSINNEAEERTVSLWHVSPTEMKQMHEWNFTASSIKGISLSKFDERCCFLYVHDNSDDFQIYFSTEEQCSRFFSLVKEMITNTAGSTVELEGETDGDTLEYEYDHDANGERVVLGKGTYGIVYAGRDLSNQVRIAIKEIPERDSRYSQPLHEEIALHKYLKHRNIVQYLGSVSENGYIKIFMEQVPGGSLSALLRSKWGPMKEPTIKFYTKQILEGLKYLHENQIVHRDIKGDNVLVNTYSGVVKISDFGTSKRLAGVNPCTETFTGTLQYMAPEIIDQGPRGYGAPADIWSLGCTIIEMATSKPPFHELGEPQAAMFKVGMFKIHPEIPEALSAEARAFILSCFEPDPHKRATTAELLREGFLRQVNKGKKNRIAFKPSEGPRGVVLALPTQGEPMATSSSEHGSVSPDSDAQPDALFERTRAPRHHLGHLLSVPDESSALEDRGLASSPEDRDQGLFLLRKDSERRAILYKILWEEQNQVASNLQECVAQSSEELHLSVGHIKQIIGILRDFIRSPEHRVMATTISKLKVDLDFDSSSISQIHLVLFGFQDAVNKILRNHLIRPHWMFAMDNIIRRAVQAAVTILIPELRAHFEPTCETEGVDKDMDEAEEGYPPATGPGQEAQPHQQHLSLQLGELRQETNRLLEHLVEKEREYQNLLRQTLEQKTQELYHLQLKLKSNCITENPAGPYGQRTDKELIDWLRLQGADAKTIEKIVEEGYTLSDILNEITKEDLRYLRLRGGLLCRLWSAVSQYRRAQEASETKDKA
To be noted: MAP3K15; 1 μM; read-out: % control.

Assay [2] deals with T2, panel of 468 kinases (Homo sapiens, UniProt P09769).
T2 construct: purchased KINOMEscan (ScanMAX) service
To be noted: FGR; 1 μM; read-out: % control.

In assay [3] the target is T3, panel of 468 kinases (Homo sapiens, UniProt Q9UM73).
T3 construct: purchased KINOMEscan (ScanMAX) service
To be noted: ALK; 1 μM; read-out: % control.

The target of assay [4] is T4, panel of 468 kinases (Homo sapiens, UniProt P48729).
T4 construct: purchased KINOMEscan (ScanMAX) service
The settings on record: CSNK1A1; 1 μM; read-out: % control.

The target of assay [5] is T5, panel of 468 kinases (Homo sapiens, UniProt O14730).
T5 construct: purchased KINOMEscan (ScanMAX) service
T5 sequence (O14730 1-519): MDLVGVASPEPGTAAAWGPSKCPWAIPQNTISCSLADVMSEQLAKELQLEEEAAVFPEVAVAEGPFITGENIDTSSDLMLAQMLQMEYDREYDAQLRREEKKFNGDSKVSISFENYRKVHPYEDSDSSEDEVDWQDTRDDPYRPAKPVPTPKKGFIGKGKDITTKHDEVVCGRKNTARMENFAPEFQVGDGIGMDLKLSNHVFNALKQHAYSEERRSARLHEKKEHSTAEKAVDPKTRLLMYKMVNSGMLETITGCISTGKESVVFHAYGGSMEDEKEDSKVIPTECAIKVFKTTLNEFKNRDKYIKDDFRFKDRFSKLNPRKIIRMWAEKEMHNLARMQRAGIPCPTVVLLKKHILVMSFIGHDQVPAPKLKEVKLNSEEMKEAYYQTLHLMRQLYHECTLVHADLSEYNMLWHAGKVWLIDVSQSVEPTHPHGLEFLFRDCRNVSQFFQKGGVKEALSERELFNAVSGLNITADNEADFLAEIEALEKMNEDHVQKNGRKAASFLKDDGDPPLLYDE
To be noted: RIOK3; 1 μM; read-out: % control.

Assay [6] has as its target T6, panel of 468 kinases (Homo sapiens, UniProt Q9P1W9).
T6 construct: purchased KINOMEscan (ScanMAX) service
To be noted: PIM2; 1 μM; read-out: % control.

Assay [7] has as its target T7, panel of 468 kinases (Homo sapiens, UniProt Q9Y3S1).
T7 construct: purchased KINOMEscan (ScanMAX) service
To be noted: WNK2; 1 μM; read-out: % control.

T7 sequence (Q9Y3S1 whole entry): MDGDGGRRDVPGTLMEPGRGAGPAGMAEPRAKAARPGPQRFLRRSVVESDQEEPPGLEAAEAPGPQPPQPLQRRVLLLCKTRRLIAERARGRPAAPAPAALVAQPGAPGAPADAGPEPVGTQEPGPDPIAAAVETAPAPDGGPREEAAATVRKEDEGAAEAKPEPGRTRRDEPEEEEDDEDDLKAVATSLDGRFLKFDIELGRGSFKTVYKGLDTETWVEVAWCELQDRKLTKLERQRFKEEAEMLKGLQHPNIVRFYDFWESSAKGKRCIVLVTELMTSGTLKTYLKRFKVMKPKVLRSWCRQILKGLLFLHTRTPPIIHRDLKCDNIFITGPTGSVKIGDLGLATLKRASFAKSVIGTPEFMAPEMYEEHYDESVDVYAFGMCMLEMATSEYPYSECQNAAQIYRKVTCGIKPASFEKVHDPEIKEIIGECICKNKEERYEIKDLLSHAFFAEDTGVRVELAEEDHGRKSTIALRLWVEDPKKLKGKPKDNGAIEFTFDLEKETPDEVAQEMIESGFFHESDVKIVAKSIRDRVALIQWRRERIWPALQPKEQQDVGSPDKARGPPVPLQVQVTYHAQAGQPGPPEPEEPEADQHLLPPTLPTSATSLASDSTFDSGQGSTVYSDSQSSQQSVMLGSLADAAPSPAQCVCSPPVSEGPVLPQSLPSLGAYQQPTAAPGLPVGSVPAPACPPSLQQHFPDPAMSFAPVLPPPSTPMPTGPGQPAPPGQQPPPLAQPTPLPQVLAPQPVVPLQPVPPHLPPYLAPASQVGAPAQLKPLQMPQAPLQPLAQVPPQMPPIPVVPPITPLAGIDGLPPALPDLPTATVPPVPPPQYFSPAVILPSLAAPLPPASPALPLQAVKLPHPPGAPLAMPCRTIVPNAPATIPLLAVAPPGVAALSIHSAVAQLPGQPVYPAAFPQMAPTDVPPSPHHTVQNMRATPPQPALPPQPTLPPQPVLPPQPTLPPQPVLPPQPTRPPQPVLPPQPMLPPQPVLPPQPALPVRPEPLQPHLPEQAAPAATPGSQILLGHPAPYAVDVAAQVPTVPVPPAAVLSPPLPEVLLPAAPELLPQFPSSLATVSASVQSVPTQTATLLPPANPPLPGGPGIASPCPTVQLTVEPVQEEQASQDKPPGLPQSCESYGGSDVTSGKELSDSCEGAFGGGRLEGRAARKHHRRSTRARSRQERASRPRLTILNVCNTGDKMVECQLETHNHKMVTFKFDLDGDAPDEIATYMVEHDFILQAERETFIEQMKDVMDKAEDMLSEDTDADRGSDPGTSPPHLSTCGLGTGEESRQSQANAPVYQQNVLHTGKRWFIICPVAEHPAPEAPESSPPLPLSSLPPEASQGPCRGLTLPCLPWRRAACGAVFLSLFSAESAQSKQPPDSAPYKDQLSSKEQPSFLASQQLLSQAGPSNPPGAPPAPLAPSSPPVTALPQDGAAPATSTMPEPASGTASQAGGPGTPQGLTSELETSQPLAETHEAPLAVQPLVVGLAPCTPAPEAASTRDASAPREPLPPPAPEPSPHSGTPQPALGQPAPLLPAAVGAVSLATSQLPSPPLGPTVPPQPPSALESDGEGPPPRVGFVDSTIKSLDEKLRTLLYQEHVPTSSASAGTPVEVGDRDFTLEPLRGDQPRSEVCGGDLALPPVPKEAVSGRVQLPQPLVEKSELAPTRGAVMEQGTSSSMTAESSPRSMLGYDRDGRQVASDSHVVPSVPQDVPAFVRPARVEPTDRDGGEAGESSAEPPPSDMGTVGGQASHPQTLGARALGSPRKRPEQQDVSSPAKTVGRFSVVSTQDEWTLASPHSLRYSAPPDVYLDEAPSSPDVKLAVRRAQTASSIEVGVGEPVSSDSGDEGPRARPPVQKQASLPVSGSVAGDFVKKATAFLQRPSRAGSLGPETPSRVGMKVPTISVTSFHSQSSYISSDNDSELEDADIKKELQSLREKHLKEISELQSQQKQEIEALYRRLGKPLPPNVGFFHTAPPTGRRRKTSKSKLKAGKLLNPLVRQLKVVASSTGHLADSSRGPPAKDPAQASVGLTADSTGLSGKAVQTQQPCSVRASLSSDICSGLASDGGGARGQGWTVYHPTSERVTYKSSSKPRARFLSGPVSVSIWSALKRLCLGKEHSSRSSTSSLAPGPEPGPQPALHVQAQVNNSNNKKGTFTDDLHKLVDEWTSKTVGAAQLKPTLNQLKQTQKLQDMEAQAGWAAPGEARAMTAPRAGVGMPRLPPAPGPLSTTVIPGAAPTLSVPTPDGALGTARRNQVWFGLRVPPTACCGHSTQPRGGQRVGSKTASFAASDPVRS
T3 sequence (Q9UM73 19-1620): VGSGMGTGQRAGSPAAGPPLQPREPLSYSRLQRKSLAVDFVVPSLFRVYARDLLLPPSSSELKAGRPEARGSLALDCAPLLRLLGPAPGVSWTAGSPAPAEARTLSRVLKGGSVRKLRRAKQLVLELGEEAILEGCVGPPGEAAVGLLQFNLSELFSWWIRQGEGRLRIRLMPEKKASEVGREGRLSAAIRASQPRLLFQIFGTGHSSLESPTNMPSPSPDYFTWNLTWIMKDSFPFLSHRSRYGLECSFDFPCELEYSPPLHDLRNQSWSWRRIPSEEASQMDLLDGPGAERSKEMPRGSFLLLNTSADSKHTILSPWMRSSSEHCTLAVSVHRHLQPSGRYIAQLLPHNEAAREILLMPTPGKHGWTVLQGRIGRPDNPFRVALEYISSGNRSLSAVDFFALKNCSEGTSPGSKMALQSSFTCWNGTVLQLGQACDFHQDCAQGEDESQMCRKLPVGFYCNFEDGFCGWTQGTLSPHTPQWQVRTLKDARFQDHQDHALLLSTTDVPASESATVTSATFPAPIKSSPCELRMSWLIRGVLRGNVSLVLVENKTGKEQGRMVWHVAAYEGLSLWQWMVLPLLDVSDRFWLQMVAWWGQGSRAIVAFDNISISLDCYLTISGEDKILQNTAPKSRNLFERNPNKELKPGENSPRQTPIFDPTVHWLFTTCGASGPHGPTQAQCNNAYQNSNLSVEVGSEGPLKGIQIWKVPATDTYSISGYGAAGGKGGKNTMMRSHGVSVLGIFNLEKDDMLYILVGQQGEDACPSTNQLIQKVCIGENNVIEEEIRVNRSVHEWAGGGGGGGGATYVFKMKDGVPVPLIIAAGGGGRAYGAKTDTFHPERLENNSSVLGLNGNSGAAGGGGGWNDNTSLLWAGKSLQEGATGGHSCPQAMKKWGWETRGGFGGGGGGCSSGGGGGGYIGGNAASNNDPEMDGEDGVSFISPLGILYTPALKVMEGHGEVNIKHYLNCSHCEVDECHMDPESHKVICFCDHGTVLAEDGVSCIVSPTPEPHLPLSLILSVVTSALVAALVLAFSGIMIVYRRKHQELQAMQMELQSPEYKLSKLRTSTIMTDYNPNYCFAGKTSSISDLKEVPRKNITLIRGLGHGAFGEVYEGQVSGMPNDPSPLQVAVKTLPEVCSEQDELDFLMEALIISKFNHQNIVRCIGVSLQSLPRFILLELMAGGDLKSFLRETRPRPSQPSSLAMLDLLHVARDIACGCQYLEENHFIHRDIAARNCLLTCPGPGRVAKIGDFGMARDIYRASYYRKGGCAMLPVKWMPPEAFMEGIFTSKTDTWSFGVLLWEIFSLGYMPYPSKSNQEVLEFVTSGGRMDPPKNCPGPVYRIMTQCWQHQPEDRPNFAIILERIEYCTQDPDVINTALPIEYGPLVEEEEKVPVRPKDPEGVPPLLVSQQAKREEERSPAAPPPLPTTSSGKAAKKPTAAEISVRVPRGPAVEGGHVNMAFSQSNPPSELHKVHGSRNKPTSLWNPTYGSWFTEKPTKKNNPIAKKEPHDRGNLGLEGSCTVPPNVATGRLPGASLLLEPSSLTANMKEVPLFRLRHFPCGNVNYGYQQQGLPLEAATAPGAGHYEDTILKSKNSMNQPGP
T2 sequence (P09769 whole entry): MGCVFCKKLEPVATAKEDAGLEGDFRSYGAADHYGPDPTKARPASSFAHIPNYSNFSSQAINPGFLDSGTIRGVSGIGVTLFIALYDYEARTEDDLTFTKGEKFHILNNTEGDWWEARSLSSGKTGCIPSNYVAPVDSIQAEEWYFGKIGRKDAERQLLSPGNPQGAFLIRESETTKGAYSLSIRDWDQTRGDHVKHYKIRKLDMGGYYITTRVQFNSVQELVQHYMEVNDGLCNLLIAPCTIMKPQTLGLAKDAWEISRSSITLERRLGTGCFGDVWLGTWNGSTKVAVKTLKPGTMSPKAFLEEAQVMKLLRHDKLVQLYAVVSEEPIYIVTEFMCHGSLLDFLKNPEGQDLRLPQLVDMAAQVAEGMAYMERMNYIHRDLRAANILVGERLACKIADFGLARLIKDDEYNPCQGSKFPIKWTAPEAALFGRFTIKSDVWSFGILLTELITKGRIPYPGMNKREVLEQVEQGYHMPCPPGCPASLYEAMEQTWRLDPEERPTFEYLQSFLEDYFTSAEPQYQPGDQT
T6 sequence (Q9P1W9 whole entry): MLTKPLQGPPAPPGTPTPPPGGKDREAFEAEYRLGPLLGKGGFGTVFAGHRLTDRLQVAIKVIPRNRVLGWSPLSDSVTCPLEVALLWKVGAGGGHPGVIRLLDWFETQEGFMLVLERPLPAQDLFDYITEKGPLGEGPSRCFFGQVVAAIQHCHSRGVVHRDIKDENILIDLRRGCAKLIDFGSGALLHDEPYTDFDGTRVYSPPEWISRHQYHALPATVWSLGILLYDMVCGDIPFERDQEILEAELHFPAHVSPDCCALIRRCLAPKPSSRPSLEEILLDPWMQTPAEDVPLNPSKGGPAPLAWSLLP
T4 sequence (P48729 whole entry): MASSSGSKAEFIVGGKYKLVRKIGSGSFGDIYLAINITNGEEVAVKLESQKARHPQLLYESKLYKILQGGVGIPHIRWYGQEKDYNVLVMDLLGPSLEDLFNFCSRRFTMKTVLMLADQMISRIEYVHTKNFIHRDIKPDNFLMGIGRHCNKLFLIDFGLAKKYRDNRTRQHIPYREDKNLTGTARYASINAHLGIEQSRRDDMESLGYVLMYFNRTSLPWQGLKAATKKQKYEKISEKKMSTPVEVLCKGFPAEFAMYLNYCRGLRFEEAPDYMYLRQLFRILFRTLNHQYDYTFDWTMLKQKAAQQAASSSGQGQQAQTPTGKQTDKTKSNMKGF

As to `CNc1nc(Nc2ccc(S(=O)(=O)N3CCC(N4CCOCC4)CC3)cc2OC)nc2[nH]cc(Cl)c12` [Compound 12, 5-chloro-N2-(2-methoxy-4-((4-morpholinopiperidin-1-yl)sulfonyl)phenyl)-N4-methyl-7H-pyrrolo[2,3-d]pyrimidine-2,4-diamine], the remaining binding at 1 µM at panel of 468 kinases [1] is 75%; on panel of 468 kinases [2], 100%; on panel of 468 kinases [3] it was 3.4%; at panel of 468 kinases [4], 48%; on panel of 468 kinases [5] it was 89%; on panel of 468 kinases [6], 99%. The remaining binding at 1 µM at panel of 468 kinases [7] was found to be 62%.

Regarding `CNc1nc(Nc2ccc(C(=O)N3CCC(N4CCOCC4)CC3)c3c2OCO3)nc2[nH]cc(Cl)c12` [Compound 75, (7-((5-chloro-4-(methylamino)-7H-pyrrolo[2,3-d]pyrimidin-2-yl)amino)benzo[d][1,3]dioxol-4-yl)(4-morpholinopiperidin-1-yl)methanone], the remaining binding at 1 µM is 39% on panel of 468 kinases [1]; 100% at panel of 468 kinases [2]; 1.9% on panel of 468 kinases [3]; 32% on panel of 468 kinases [4]; 28% on panel of 468 kinases [5]; 100% on panel of 468 kinases [6]. Further, on panel of 468 kinases [7], the remaining binding at 1 µM was 69%.

With `CNc1nc(Nc2ccc(P3(=O)CCN(C4CCOCC4)CC3)cc2OC)nc2[nH]cc(Cl)c12` [Compound 77, 4-(4-((5-chloro-4-(methylamino)-7H-pyrrolo[2,3-d]pyrimidin-2-yl)amino)-3-methoxyphenyl)-1-(tetrahydro-2H-pyran-4-yl)-1,4-azaphosphinane 4-oxide], the remaining binding at 1 µM at panel of 468 kinases [1] was found to be 46%; on panel of 468 kinases [2], 100%; at panel of 468 kinases [3], 2%; at panel of 468 kinases [4] it was 27%; on panel of 468 kinases [5], 88%; on panel of 468 kinases [6], 100%. On panel of 468 kinases [7], the remaining binding at 1 µM was 71%.
